The values that follow come from patent US10112935B2, “Indazolyl thiadiazolamines and related compounds for inhibition of Rho-associated protein kinase and the treatment of disease” (Lycera Corporation, priority 2015, dated 2018).

Molecules are shown by their SMILES.

In assay [1] the test system is ROCK. The note with it: porcine, IL-1 beta-induced; cited from earlier work.
Assay [2] relates to ROCK. To be noted: rat stroke model; cited from earlier work.
The target in assay [3] is GST-tagged human ROCK1 catalytic domain 1-477 (Homo sapiens (Human), UniProt Q13464). In words: Inhibition of Rho-associated protein kinase isoform 1 (LANCE Ultra ULight-CREBtide FRET kinase assay). The note with it: 30 μM was the highest concentration analyzed. Format: biochemical. An outline of the steps: (§1)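 Baculovirus-expressed kinase phosphorylated ULight-CREBtide for 90 min at room temperature before the reaction was stopped with 10 mM EDTA. Phospho-substrate was detected by TR-FRET with 1 nM Europium-anti-phospho-CREB (Ser133) antibody after 60 min at room temperature.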

Assay [4] concerns the target GST-tagged human ROCK2 catalytic domain 1-553 (Homo sapiens (Human), UniProt O75116). Put plainly: Inhibition of Rho-associated protein kinase isoform 2 (LANCE Ultra ULight-CREBtide FRET kinase assay). Format: biochemical. To be noted: for IC50: 30 μM was the highest concentration analyzed; for Selectivity for ROCK2 over ROCK1 (IC50 ROCK1 / IC50 ROCK2): selectivity ROCK2 vs ROCK1. In a few lines:
as §1
On the technique in general: TR-FRET usually uses a lanthanide donor and a delayed reading to cut background.

GST-tagged human ROCK2 catalytic domain 1-553, sequence (O75116 1-553): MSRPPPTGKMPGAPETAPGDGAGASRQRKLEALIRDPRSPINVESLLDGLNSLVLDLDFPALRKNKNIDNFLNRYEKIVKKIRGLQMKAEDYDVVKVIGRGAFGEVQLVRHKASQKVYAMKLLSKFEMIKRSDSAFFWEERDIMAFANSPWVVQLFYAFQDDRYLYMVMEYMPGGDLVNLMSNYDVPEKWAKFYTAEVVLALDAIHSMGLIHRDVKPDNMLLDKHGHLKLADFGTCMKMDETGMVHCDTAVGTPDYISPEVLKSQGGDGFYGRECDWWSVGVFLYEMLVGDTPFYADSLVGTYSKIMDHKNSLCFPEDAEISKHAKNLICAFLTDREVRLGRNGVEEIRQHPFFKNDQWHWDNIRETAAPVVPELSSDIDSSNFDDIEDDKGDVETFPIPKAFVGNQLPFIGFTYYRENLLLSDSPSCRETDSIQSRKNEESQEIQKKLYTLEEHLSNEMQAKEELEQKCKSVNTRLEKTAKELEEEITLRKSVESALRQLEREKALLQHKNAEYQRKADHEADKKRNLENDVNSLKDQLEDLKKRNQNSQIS
GST-tagged human ROCK1 catalytic domain 1-477, sequence (Q13464 1-477): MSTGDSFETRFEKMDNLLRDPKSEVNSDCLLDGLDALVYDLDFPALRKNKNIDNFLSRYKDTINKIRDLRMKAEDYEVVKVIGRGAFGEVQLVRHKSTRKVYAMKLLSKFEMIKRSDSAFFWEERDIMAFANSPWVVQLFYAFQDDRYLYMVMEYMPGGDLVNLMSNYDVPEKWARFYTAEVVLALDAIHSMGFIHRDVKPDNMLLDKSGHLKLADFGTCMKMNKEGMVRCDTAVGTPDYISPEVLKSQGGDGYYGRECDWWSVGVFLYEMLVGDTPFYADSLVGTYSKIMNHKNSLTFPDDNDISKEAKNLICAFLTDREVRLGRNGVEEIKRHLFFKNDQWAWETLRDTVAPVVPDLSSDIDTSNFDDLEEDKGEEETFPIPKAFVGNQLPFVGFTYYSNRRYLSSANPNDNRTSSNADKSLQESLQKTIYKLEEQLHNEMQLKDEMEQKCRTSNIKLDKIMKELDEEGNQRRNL

As to `O=S(=O)(c1cccc2cnccc12)N1CCCNCC1` [fasudil], in assay [1], the coronary stenosis result is on record as “progressively reduce coronary stenosis”. Further, the “infarct size and neurologic deficit” value in assay [2] was “reduce both the infarct size and neurologic deficit”.
One may read the IC50 as the concentration at which inhibition is half-maximal. Higher therefore signals weaker potency in that assay. In turn, `CN(C)CC(=O)Nc1cncc(-c2nnc(Nc3ccc4[nH]ncc4c3)s2)c1` [Example A-3] showed an IC50 in assay [3] of 1 to 15 µM. In addition, in assay [4], the IC50 is less than 1 µM and the “Selectivity for ROCK2 over ROCK1 (IC50 ROCK1 / IC50 ROCK2)” value (“Selectivity … (IC50 ROCK1 / IC50 ROCK2)” for short) was less than 5.
With `N#Cc1ccc(CC(=O)Nc2cccc(-c3nnc(Nc4ccc5[nH]ncc5c4Cl)s3)c2)cc1` [Example 35BK], the IC50 in assay [3] is greater than 30 µM. In assay [4], the IC50 is less than 1 µM and the “Selectivity … (IC50 ROCK1 / IC50 ROCK2)” value is recorded as greater than 100.
On to `O=C(O)COc1cccc(-c2nnc(Nc3ccc4[nH]ncc4c3)s2)c1` [Example 35CO], for which the IC50 in assay [3] and in assay [4] was 1 to 15 µM each time.
Compound `Nc1nc(-c2nnc(Nc3ccc4[nH]ncc4c3Cl)s2)c[nH]1` [Example 75W] came in with a half-maximal inhibitory concentration (IC50) in assay [3] of less than 1 µM. For the same compound, in assay [4], the IC50 is less than 1 µM and the “Selectivity … (IC50 ROCK1 / IC50 ROCK2)” value is given as less than 5.
The compound `O=C(Nc1cncc(-c2nnc(Nc3ccc4[nH]ncc4c3)s2)c1)c1c[nH]cn1` [Example A-37] came in with a half-inhibitory concentration (IC50) in assay [3] greater than 30 µM. In addition, in assay [4], the 50% inhibitory concentration (IC50) was less than 1 µM and the “Selectivity … (IC50 ROCK1 / IC50 ROCK2)” value is given as greater than 100.
Consider `CC(=O)Nc1cc(CN2CCN(C)CC2)cc(-c2nnc(Nc3ccc4[nH]ncc4c3Cl)s2)c1.O=C(O)C(F)(F)F` [Example 48B], for which the values for the IC50 in assay [3] and in assay [4] were 1 to 15 µM and less than 1 µM, respectively. In addition, the “Selectivity … (IC50 ROCK1 / IC50 ROCK2)” value in assay [4] was greater than 50.
The matching figures for `CC(C)n1ccnc1-c1cccc(-c2nnc(Nc3ccc4[nH]ncc4c3Cl)s2)c1.O=C(O)C(F)(F)F` [Example 46A]: less than 1 µM, less than 1 µM and greater than 5.
In assay [3], `CC(C)C[C@H](N)C(=O)Nc1cccc(-c2nnc(Nc3ccc4[nH]ncc4c3Cl)s2)c1` [Example 35BA] showed an IC50 of less than 1 µM. In assay [4], the 50% inhibitory concentration (IC50) is less than 1 µM and the “Selectivity … (IC50 ROCK1 / IC50 ROCK2)” value is greater than 5.
Regarding `Cc1coc(-c2cccc(-c3nnc(Nc4ccc5[nH]ncc5c4Cl)s3)c2)n1` [Example 46C], in assay [3], the IC50 is less than 1 µM. For the same compound, in assay [4], the IC50 was less than 1 µM and the “Selectivity … (IC50 ROCK1 / IC50 ROCK2)” value was greater than 5.
`CC(=O)Nc1cc(F)c(F)c(-c2nnc(Nc3ccc4[nH]ncc4c3Cl)s2)c1.O=C(O)C(F)(F)F` [Example 35BB] came in with an IC50 in assay [3] greater than 30 µM. Besides, in assay [4], the IC50 is less than 1 µM and the “Selectivity … (IC50 ROCK1 / IC50 ROCK2)” value is greater than 100.
`CCc1c(Nc2nnc(-c3cccc(NC(C)=O)c3)s2)ccc2[nH]ncc12` [Example 75C]: the 50% inhibitory concentration (IC50) in assay [3] and in assay [4] was less than 1 µM throughout. In addition, the “Selectivity … (IC50 ROCK1 / IC50 ROCK2)” value in assay [4] is listed as greater than 5.
